Assay results taken from patent US11299501B2 (BRISTOL-MYERS SQUIBB COMPANY, priority 2017, dated 2022).

How the values were obtained:
Assay type in all cases: cell-based
human TLR8 = biological target: T1, human TLR8 (Homo sapiens, UniProt Q9NR97); experiment: TLR8 inhibition reporter assay (HEK-Blue SEAP); settings: cells overexpressing human TLR8, SEAP reporter, stimulated with R848 15.9 μM, 22 hour incubation
T1 construct: host or cells: HEK-Blue cells
T1 sequence (Q9NR97 27-1041): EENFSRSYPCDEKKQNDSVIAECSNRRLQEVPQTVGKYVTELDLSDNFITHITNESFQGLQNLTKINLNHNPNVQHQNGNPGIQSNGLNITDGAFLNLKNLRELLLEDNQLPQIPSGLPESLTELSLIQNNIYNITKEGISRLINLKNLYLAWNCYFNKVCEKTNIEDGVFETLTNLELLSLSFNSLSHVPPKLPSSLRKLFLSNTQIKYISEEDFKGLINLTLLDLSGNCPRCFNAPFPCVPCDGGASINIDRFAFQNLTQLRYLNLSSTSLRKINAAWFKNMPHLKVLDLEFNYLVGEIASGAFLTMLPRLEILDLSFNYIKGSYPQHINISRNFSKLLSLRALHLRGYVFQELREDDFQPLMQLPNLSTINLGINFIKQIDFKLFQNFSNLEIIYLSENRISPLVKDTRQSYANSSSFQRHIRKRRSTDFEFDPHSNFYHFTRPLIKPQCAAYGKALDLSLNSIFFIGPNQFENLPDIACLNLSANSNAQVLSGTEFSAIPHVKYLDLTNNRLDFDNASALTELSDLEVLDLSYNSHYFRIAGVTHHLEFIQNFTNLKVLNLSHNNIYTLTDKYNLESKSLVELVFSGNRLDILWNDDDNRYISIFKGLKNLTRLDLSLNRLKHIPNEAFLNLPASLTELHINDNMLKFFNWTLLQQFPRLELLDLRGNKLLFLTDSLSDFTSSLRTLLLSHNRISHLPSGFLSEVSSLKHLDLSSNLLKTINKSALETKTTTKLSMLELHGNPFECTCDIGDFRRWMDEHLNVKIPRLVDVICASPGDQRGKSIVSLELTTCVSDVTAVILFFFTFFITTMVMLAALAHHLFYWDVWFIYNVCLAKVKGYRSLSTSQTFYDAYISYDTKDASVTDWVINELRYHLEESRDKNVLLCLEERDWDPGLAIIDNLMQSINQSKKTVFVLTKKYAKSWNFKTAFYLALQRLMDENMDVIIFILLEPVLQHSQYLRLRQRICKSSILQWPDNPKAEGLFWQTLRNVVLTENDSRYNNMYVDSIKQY
How it was run: (§1)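 HEK-Blue cells expressing human TLR7, TLR8 or TLR9 with NF-κB/AP-1-driven SEAP reporter pre-treated 30 min at room temperature with compound (0.05 nM–50 μM), then stimulated with gardiquimod 7.5 μM (TLR7), R848 15.9 μM (TLR8) or ODN2006 5 nM (TLR9). SEAP read after 22 h at 37 °C; % inhibition relative to agonist+DMSO and reference-inhibitor wells.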

human TLR9 = biological target: T2, human TLR9 (Homo sapiens, UniProt Q9NR96); experiment: TLR9 inhibition reporter assay (HEK-Blue SEAP); settings: cells overexpressing human TLR9, SEAP reporter, stimulated with ODN2006 5 nM, 22 hour incubation
T2 construct: host or cells: HEK-Blue cells
T2 sequence (Q9NR96 26-1032): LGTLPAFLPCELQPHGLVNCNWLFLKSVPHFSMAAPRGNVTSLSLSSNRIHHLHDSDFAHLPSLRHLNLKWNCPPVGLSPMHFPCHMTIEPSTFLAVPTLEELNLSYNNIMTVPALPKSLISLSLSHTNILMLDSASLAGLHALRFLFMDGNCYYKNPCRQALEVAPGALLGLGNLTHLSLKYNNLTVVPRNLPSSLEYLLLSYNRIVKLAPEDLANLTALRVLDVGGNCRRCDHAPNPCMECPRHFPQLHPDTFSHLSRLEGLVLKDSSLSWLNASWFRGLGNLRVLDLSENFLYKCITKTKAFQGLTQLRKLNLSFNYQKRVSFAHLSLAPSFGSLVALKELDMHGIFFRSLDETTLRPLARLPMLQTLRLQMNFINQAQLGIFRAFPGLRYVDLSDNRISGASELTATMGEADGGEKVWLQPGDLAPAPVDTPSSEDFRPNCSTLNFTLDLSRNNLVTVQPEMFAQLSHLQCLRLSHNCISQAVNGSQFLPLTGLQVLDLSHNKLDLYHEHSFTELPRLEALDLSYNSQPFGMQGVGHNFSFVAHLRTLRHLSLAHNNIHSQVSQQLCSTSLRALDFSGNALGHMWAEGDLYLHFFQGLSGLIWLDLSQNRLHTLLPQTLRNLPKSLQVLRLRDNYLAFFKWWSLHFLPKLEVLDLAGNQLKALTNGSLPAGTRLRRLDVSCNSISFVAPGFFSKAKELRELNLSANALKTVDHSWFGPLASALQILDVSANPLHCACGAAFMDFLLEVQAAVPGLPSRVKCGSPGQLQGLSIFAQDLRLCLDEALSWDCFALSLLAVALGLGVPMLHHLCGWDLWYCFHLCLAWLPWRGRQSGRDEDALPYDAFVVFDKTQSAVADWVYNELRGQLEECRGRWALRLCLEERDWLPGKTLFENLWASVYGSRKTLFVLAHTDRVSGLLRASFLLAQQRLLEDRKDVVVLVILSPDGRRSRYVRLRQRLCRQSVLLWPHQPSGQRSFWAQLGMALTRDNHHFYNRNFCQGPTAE
How it was run: as §1

human TLR7 = biological target: T3, human TLR7 (Homo sapiens, UniProt Q9NYK1); experiment: TLR7 inhibition reporter assay (HEK-Blue SEAP); settings: cells overexpressing human TLR7, SEAP reporter, stimulated with gardiquimod 7.5 μM, 22 hour incubation
T3 construct: host or cells: HEK-Blue cells
T3 sequence (Q9NYK1 27-1049): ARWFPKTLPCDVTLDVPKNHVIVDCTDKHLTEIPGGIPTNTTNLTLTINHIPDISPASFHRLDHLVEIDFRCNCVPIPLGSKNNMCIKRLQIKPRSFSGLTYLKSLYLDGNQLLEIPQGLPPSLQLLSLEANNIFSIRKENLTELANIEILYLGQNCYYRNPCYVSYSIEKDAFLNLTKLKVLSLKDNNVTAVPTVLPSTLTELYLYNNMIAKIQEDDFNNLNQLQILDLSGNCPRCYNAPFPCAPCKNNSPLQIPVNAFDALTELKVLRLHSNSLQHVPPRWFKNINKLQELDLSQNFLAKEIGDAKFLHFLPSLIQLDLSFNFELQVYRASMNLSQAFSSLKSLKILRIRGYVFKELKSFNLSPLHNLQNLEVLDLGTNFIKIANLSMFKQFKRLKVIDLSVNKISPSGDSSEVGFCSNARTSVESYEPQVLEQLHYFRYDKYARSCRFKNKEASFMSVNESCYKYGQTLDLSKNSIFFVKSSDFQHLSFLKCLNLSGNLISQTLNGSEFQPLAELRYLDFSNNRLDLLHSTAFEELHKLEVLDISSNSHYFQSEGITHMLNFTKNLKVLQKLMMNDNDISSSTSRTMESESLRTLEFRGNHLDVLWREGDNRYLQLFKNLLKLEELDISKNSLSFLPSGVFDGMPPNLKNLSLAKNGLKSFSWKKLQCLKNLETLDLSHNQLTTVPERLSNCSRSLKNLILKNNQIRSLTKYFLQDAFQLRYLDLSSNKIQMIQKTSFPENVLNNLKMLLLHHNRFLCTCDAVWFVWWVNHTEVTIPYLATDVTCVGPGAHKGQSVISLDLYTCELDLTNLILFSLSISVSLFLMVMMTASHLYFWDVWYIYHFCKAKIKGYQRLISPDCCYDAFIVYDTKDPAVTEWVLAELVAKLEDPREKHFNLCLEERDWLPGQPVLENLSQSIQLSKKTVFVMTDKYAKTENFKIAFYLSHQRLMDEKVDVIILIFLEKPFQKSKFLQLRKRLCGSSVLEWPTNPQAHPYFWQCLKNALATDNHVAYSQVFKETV
How it was run: as §1

| Compound | IC50 (human TLR8) [nM] | IC50 (human TLR9) [nM] | IC50 (human TLR7) [nM] |
| --- | --- | --- | --- |
| CCc1c(-c2ccc(OC)c(OC)c2)[nH]c2cnc(-c3nnc(CCCN(C)C)o3)nc12 [Example 37, 3-(5-(6-(3,4-dimethoxyphenyl)-7-ethyl-5H-pyrrolo[3,2-d]pyrimidin-2-yl)-1,3,4-oxadiazol-2-yl)-N,N-dimethylpropan-1-amine] | 100 to 1000 | 1000 to 50000 | 1000 to 50000 |
| CCc1c(-c2ccc(OC)c(OC)c2)[nH]c2cnc(-c3nnc(CCNC)o3)nc12 [Example 38, 2-(5-(6-(3,4-dimethoxyphenyl)-7-ethyl-5H-pyrrolo[3,2-d]pyrimidin-2-yl)-1,3,4-oxadiazol-2-yl)-N-methylethan-1-amine] | 100 to 1000 | 1000 to 50000 | 1000 to 50000 |
| CCc1c(-c2ccc(OC)c(OC)c2)[nH]c2cnc(-c3nnc(C(C)(C)N)o3)nc12 [Example 39, 2-(5-(6-(3,4-dimethoxyphenyl)-7-ethyl-5H-pyrrolo[3,2-d]pyrimidin-2-yl)-1,3,4-oxadiazol-2-yl)propan-2-amine] | 1000 to 50000 | > 50000 | 1000 to 50000 |
| CCc1c(-c2ccc(OC)c(OC)c2)[nH]c2cnc(-c3nnc([C@H]4CCCNC4)o3)nc12 [Example 40, (S)-2-(6-(3,4-dimethoxyphenyl)-7-ethyl-5H-pyrrolo[3,2-d]pyrimidin-2-yl)-5-(piperidin-3-yl)-1,3,4-oxadiazole] | 100 to 1000 | 100 to 1000 | 100 to 1000 |
| CCc1c(-c2ccc(OC)c(OC)c2)[nH]c2cnc(-c3nnc([C@@H]4CCNC4)o3)nc12 [Example 41, (R)-2-(6-(3,4-dimethoxyphenyl)-7-ethyl-5H-pyrrolo[3,2-d]pyrimidin-2-yl)-5-(pyrrolidin-3-yl)-1,3,4-oxadiazole] | 1000 to 50000 | 1000 to 50000 | 1000 to 50000 |
| CCc1c(-c2ccc(OC)c(OC)c2)[nH]c2cnc(-c3nnc([C@@H]4CCCNC4)o3)nc12 [Example 43, (R)-2-(6-(3,4-dimethoxyphenyl)-7-ethyl-5H-pyrrolo[3,2-d]pyrimidin-2-yl)-5-(piperidin-3-yl)-1,3,4-oxadiazole] | 100 to 1000 | 1000 to 50000 | 1000 to 50000 |
| CCc1c(-c2ccc(OC)c(OC)c2)[nH]c2cnc(-c3nnc(C[C@@H]4CCCN4)o3)nc12 [Example 45, (S)-2-(6-(3,4-dimethoxyphenyl)-7-ethyl-5H-pyrroIo[3,2-d]pyrimidin-2-yl)-5-(pyrrolidin-2-ylmethyl)-1,3,4-oxadiazole] | 1000 to 50000 | 1000 to 50000 | 1000 to 50000 |
| CCc1c(-c2ccc(OC)c(OC)c2)[nH]c2cnc(C3CCN(Cc4c[nH]cn4)CC3)nc12 [Example 51, 2-(1-((1H-imidazol-4-yl)methyl)piperidin-4-yl)-6-(3,4-dimethoxyphenyl)-7-ethyl-5H-pyrrolo[3,2-d]pyrimidine] | 100 to 1000 | 1000 to 50000 | 100 to 1000 |

Now from value to molecule:

| IC50 (human TLR8) [nM] | IC50 (human TLR9) [nM] | IC50 (human TLR7) [nM] | Compound |
| --- | --- | --- | --- |
| 100 to 1000 | 1000 to 50000 | 1000 to 50000 | CCc1c(-c2ccc(OC)c(OC)c2)[nH]c2cnc(-c3nnc(CNC)o3)nc12 [Example 42, 1-(5-(6-(3,4-dimethoxyphenyl)-7-ethyl-5H-pyrrolo[3,2-d]pyrimidin-2-yl)-1,3,4-oxadiazol-2-yl)-N-methylmethanamine] |
| 1000 to 50000 | 1000 to 50000 | 1000 to 50000 | CCc1c(-c2ccc(OC)c(OC)c2)[nH]c2cnc(-c3nnc([C@H]4CCNC4)o3)nc12 [Example 44, (S)-2-(6-(3,4-dimethoxyphenyl)-7-ethyl-5H-pyrrolo[3,2-d]pyrimidin-2-yl)-5-(pyrrolidin-3-yl)-1,3,4-oxadiazole] |
| 100 to 1000 | 1000 to 50000 | 1000 to 50000 | CCc1c(-c2ccc(OC)c(OC)c2)[nH]c2cnc(-c3nnc(C[C@@H]4CCCCN4)o3)nc12 [Example 46, (S)-2-(6-(3,4-dimethoxyphenyl)-7-ethyl-5H-pyrrolo[3,2-d]pyrimidin-2-yl)-5-(piperidin-2-ylmethyl)-1,3,4-oxadiazole] |
| 100 to 1000 | 1000 to 50000 | 1000 to 50000 | CCc1c(-c2ccc(OC)c(OC)c2)[nH]c2cnc(-c3nnc(C[C@H]4CCCN4)o3)nc12 [Example 47, (R)-2-(6-(3,4-dimethoxyphenyl)-7-ethyl-5H-pyrrolo[3,2-d]pyrimidin-2-yl)-5-(pyrrolidin-2-ylmethyl)-1,3,4-oxadiazole] |
| 100 to 1000 | 1000 to 50000 | 1000 to 50000 | CCc1c(-c2ccc(OC)c(OC)c2)[nH]c2cnc(-c3nnc(CCN(C)C)o3)nc12 [Example 48, 2-(5-(6-(3,4-dimethoxyphenyl)-7-ethyl-5H-pyrrolo[3,2-d]pyrimidin-2-yl)-1,3,4-oxadiazol-2-yl)-N,N-dimethylethan-1-amine] |
| < 100 | 1000 to 50000 | 100 to 1000 | CCc1c(-c2ccc(OC)c(OC)c2)[nH]c2cnc(C3CCN(CC(=O)N(C)C)CC3)nc12 [Example 49] |
| 100 to 1000 | 1000 to 50000 | 100 to 1000 | CCc1c(-c2ccc(OC)c(OC)c2)[nH]c2cnc(C3CCN(CC(=O)NC)CC3)nc12 [Example 50] |
